In ChEMBL document CHEMBL3085643, “Synthesis and evaluation in monkey of [(18)F]4-fluoro-N-methyl-N-(4-(6-(methylamino)pyrimidin-4-yl)thiazol-2-yl)benzamide ([(18)F]FIMX): a promising radioligand for PET imaging of brain metabotropic glutamate receptor 1 (mGluR1)” (J Med Chem, 2013):

Key:
[1] = molecular target: Histamine H1 receptor (Homo sapiens, UniProt P35367); assay: Binding affinity to human histamine H1 receptor by PDSP assay
[2] = molecular target: Mu-type opioid receptor (Homo sapiens, UniProt P35372); assay: Binding affinity to human mu opioid receptor by PDSP assay
[3] = molecular target: Alpha-2C adrenergic receptor (Homo sapiens, UniProt P18825); assay: Binding affinity to human alpha-2C adrenergic receptor by PDSP assay
Chain of Alpha-2C adrenergic receptor (P18825 whole entry): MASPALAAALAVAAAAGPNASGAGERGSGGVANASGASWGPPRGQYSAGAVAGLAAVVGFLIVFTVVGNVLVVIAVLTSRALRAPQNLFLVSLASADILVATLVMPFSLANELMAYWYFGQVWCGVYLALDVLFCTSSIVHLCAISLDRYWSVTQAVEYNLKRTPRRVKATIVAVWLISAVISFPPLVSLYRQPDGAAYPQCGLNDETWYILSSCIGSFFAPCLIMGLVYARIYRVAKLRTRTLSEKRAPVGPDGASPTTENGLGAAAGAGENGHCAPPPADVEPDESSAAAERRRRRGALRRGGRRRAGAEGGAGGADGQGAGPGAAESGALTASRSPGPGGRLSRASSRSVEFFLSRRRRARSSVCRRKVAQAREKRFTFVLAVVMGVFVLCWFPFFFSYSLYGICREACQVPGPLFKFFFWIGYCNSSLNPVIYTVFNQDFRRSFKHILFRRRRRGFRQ

[4] = molecular target: D(3) dopamine receptor (Homo sapiens, UniProt P35462); assay: Binding affinity to human dopamine D3 receptor by PDSP assay
[5] = molecular target: Beta-1 adrenergic receptor (Homo sapiens, UniProt P08588); assay: Binding affinity to human beta1 adrenergic receptor by PDSP assay
[6] = Binding affinity to BZP site in rat brain by PDSP assay; type: tissue-based
[7] = molecular target: 5-hydroxytryptamine receptor 7 (Homo sapiens, UniProt P34969); assay: Binding affinity to human 5-HT7 receptor by PDSP assay
Chain of 5-hydroxytryptamine receptor 7 (P34969 whole entry): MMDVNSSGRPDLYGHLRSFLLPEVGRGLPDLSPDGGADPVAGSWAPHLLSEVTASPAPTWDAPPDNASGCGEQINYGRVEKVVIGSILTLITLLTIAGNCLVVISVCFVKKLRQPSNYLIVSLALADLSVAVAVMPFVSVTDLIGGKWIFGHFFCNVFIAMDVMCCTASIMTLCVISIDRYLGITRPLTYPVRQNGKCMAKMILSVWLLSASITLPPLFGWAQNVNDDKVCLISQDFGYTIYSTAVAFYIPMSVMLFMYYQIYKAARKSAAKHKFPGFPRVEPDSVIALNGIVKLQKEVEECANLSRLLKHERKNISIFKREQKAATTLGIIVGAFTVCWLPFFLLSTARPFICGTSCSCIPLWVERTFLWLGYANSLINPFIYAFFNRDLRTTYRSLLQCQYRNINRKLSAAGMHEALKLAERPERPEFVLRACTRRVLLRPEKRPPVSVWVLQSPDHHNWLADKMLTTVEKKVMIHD

[8] = molecular target: Muscarinic acetylcholine receptor M1 (Homo sapiens, UniProt P11229); assay: Binding affinity to human muscarinic M1 receptor by PDSP assay
Chain of Muscarinic acetylcholine receptor M1 (P11229 whole entry): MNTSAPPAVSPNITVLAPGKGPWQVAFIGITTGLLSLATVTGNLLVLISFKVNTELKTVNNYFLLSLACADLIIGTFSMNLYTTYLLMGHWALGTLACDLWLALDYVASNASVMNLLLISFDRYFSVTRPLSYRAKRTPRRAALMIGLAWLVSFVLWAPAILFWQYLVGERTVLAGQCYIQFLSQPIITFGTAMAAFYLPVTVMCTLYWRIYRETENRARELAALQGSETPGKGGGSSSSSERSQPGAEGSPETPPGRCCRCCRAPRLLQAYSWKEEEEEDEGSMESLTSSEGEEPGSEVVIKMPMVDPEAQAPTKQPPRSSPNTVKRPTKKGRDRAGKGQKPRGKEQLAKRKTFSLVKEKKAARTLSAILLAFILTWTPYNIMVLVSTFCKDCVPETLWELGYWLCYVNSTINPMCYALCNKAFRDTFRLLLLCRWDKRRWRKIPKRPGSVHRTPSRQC

[9] = molecular target: 5-hydroxytryptamine receptor 2C (Homo sapiens, UniProt P28335); assay: Binding affinity to human 5-HT2C receptor by PDSP assay
[10] = molecular target: 5-hydroxytryptamine receptor 3A (Homo sapiens, UniProt P46098); assay: Binding affinity to human 5-HT3 receptor by PDSP assay
Chain of 5-hydroxytryptamine receptor 3A (P46098 whole entry): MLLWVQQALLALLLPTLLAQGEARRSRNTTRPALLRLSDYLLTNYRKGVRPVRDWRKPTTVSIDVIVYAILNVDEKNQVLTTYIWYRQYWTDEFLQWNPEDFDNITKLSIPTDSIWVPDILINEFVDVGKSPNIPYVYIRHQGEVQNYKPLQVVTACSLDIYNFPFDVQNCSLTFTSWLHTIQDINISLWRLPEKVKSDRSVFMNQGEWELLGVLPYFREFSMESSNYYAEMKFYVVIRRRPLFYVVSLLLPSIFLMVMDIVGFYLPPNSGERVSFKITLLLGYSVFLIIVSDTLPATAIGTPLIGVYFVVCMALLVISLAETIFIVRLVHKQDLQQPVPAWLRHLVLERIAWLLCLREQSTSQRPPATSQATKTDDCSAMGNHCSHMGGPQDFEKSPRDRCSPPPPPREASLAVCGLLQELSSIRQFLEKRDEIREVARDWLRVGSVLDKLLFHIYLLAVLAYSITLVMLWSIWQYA

[11] = molecular target: Alpha-1D adrenergic receptor (Homo sapiens, UniProt P25100); assay: Binding affinity to human alpha-1D adrenergic receptor by PDSP assay
[12] = molecular target: D(2) dopamine receptor (Homo sapiens, UniProt P14416); assay: Binding affinity to human dopamine D2 receptor by PDSP assay
[13] = molecular target: 5-hydroxytryptamine receptor 2B (Homo sapiens, UniProt P41595); assay: Binding affinity to human 5-HT2B receptor by PDSP assay
[14] = molecular target: D(1A) dopamine receptor (Homo sapiens, UniProt P21728); assay: Binding affinity to human dopamine D1 receptor by PDSP assay
Chain of D(1A) dopamine receptor (P21728 whole entry): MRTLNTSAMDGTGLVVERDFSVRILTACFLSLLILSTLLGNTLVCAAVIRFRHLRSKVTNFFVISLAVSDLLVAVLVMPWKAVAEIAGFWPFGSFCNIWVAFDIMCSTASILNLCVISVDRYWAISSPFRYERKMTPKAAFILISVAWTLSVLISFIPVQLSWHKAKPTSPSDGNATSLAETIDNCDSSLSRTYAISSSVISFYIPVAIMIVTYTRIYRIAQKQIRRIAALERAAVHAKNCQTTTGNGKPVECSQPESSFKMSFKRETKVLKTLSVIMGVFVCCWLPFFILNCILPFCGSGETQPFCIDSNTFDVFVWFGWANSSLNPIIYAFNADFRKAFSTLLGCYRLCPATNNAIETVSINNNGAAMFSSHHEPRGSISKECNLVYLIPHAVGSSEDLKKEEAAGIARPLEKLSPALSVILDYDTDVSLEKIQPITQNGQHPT

[15] = molecular target: 5-hydroxytryptamine receptor 1D (Homo sapiens, UniProt P28221); assay: Binding affinity to human 5-HT1D receptor by PDSP assay
[16] = molecular target: Muscarinic acetylcholine receptor M2 (Homo sapiens, UniProt P08172); assay: Binding affinity to human muscarinic M2 receptor by PDSP assay
[17] = molecular target: 5-hydroxytryptamine receptor 5A (Homo sapiens, UniProt P47898); assay: Binding affinity to human 5-HT5A receptor by PDSP assay
[18] = molecular target: Alpha-1B adrenergic receptor (Homo sapiens, UniProt P35368); assay: Binding affinity to human alpha-1B adrenergic receptor by PDSP assay
[19] = molecular target: Muscarinic acetylcholine receptor M5 (Homo sapiens, UniProt P08912); assay: Binding affinity to human muscarinic M5 receptor by PDSP assay
[20] = molecular target: Muscarinic acetylcholine receptor M4 (Homo sapiens, UniProt P08173); assay: Binding affinity to human muscarinic M4 receptor by PDSP assay
Chain of Muscarinic acetylcholine receptor M4 (P08173 whole entry): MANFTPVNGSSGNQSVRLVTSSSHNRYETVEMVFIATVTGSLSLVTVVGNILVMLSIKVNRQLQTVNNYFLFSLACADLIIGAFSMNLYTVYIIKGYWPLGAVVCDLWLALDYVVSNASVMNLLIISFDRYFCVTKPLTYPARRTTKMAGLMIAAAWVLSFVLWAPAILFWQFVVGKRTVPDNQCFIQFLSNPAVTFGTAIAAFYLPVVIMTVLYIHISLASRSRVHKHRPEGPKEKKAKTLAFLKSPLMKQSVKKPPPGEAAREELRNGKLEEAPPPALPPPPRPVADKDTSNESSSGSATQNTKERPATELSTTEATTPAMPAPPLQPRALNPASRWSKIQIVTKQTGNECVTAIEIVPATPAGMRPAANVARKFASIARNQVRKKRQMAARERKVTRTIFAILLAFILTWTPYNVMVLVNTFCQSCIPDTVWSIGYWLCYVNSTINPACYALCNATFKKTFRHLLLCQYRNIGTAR

[21] = molecular target: Histamine H3 receptor (Homo sapiens, UniProt Q9Y5N1); assay: Binding affinity to human histamine H3 receptor by PDSP assay
[22] = molecular target: Glutamate [NMDA] receptor; assay: Binding affinity to human NMDA receptor by PDSP assay
[23] = molecular target: D(1B) dopamine receptor (Homo sapiens, UniProt P21918); assay: Binding affinity to human dopamine D5 receptor by PDSP assay
[24] = molecular target: Sigma non-opioid intracellular receptor 1 (Homo sapiens, UniProt Q99720); assay: Binding affinity to human sigma-1 receptor by PDSP assay
[25] = molecular target: Metabotropic glutamate receptor 5 (Homo sapiens, UniProt P41594); assay: Binding affinity to human mGluR5 by PDSP assay
[26] = molecular target: Metabotropic glutamate receptor 5 (Rattus norvegicus, UniProt P31424); assay: Binding affinity to mGluR5 in rat brain; type: tissue-based
[27] = molecular target: Sodium-dependent serotonin transporter (Homo sapiens, UniProt P31645); assay: Binding affinity to human SERT by PDSP assay
Chain of Sodium-dependent serotonin transporter (P31645 whole entry): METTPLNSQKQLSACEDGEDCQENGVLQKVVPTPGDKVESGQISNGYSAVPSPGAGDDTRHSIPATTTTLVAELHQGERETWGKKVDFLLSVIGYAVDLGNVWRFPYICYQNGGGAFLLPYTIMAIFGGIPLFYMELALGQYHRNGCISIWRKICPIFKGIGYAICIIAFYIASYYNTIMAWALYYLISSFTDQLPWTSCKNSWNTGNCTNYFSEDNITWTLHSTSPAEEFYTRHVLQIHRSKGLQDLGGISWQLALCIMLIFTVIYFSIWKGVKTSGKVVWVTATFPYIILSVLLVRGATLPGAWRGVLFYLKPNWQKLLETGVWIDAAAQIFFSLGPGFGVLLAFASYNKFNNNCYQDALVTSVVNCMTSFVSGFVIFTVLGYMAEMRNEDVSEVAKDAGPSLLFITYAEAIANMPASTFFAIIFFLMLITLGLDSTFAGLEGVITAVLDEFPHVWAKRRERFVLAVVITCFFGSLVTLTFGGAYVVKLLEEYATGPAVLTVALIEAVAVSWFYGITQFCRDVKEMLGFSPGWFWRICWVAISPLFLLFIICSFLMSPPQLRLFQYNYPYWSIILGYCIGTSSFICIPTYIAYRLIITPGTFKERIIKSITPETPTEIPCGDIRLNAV

[28] = molecular target: Alpha-2B adrenergic receptor (Homo sapiens, UniProt P18089); assay: Binding affinity to human alpha-2B adrenergic receptor by PDSP assay
[29] = molecular target: Kappa-type opioid receptor (Homo sapiens, UniProt P41145); assay: Binding affinity to human kappa opioid receptor by PDSP assay
[30] = molecular target: Sodium-dependent noradrenaline transporter (Homo sapiens, UniProt P23975); assay: Binding affinity to human NET by PDSP assay
[31] = molecular target: 5-hydroxytryptamine receptor 6 (Homo sapiens, UniProt P50406); assay: Binding affinity to human 5-HT6 receptor by PDSP assay
Chain of 5-hydroxytryptamine receptor 6 (P50406 whole entry): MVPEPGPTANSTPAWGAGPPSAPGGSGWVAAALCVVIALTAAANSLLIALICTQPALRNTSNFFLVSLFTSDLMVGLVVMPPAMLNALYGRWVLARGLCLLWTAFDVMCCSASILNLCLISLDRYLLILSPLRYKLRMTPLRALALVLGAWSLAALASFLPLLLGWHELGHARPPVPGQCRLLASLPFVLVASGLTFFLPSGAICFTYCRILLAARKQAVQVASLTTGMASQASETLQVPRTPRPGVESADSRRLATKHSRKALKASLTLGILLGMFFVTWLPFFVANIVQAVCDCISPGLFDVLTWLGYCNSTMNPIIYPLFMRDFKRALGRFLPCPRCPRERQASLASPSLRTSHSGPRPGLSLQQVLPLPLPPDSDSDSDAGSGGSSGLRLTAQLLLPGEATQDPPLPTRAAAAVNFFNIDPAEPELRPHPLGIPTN

[32] = molecular target: 5-hydroxytryptamine receptor 1A (Homo sapiens, UniProt P08908); assay: Binding affinity to human 5-HT1A receptor by PDSP assay
[33] = molecular target: Translocator protein (Homo sapiens, UniProt P30536); assay: Binding affinity to human TSPO receptor by PDSP assay
Chain of Translocator protein (P30536 whole entry): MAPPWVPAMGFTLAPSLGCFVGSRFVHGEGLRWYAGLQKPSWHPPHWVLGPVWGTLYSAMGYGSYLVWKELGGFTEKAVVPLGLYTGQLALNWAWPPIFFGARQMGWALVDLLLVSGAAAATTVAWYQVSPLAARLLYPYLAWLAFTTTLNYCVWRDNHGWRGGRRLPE

[34] = molecular target: GABA-A receptor; agonist GABA site; assay: Binding affinity to human GABAA receptor by PDSP assay; type: protein-complex assay
[35] = molecular target: Delta-type opioid receptor (Homo sapiens, UniProt P41143); assay: Binding affinity to human delta opioid receptor by PDSP assay
[36] = molecular target: 5-hydroxytryptamine receptor 1E (Homo sapiens, UniProt P28566); assay: Binding affinity to human 5-HT1E receptor by PDSP assay
[37] = molecular target: 5-hydroxytryptamine receptor 1B (Homo sapiens, UniProt P28222); assay: Binding affinity to human 5-HT1B receptor by PDSP assay
[38] = molecular target: D(4) dopamine receptor (Homo sapiens, UniProt P21917); assay: Binding affinity to human dopamine D4 receptor by PDSP assay
[39] = molecular target: Alpha-1A adrenergic receptor (Homo sapiens, UniProt P35348); assay: Binding affinity to human alpha-1A adrenergic receptor by PDSP assay
Chain of Alpha-1A adrenergic receptor (P35348 whole entry): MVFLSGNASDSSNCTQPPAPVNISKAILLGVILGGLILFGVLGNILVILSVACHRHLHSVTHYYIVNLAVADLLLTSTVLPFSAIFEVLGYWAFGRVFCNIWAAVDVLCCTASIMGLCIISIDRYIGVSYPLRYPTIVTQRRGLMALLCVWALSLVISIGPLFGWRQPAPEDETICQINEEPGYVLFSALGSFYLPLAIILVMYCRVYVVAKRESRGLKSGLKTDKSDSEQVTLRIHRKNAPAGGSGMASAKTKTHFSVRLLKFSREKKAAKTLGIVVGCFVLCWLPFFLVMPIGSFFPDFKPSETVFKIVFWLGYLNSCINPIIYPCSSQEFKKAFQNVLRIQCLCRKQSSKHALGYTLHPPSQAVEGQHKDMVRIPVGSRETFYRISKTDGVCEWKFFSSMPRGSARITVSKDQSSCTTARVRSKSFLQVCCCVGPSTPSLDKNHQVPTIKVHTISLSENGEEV

[40] = molecular target: Muscarinic acetylcholine receptor M3 (Homo sapiens, UniProt P20309); assay: Binding affinity to human muscarinic M3 receptor by PDSP assay
[41] = molecular target: Alpha-2A adrenergic receptor (Homo sapiens, UniProt P08913); assay: Binding affinity to human alpha-2A adrenergic receptor by PDSP assay
[42] = Binding affinity to human sigma-2 receptor by PDSP assay
[43] = molecular target: Beta-3 adrenergic receptor (Homo sapiens, UniProt P13945); assay: Binding affinity to human beta3 adrenergic receptor by PDSP assay
[44] = molecular target: Beta-2 adrenergic receptor (Homo sapiens, UniProt P07550); assay: Binding affinity to human beta2 adrenergic receptor by PDSP assay
Chain of Beta-2 adrenergic receptor (P07550 whole entry): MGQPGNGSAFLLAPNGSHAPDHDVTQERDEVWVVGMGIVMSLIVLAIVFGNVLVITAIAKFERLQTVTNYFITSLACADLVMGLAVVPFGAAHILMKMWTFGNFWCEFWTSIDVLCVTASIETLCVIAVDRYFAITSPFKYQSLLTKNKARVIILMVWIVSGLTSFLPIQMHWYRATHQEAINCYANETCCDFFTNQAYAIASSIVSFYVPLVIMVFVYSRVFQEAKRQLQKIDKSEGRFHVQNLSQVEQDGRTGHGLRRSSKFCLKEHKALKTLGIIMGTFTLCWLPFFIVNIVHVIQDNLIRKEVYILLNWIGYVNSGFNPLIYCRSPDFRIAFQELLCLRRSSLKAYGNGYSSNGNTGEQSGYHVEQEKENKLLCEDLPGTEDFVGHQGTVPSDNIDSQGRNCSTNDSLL

- Ki [1]: > 10 µM
- Ki [2]: > 10 µM
- Ki [3]: > 10 µM
- Ki [4]: > 10 µM
- Ki [5]: > 10 µM
- Ki [6]: > 10 µM
- Ki [7]: > 10 µM
- Ki [8]: > 10 µM
- Ki [9]: > 10 µM
- Ki [10]: > 10 µM
- Ki [11]: > 10 µM
- Ki [12]: > 10 µM
- Ki [13]: > 10 µM
- Ki [14]: > 10 µM
- Ki [15]: > 10 µM
- Ki [16]: > 10 µM
- Ki [17]: > 10 µM
- Ki [18]: > 10 µM
- Ki [19]: > 10 µM
- Ki [20]: > 10 µM
- Ki [21]: > 10 µM
- Ki [22]: > 10 µM
- Ki [23]: > 10 µM
- Ki [24]: > 10 µM
- Ki [25]: 7.9 µM
- Ki [26]: 2.1 µM
- Ki [27]: > 10 µM
- Ki [28]: > 10 µM
- Ki [29]: > 10 µM
- Ki [30]: > 10 µM
- Ki [31]: > 10 µM
- Ki [32]: > 10 µM
- Ki [33]: > 10 µM
- Ki [34]: > 10 µM
- Ki [35]: > 10 µM
- Ki [36]: > 10 µM
- Ki [37]: > 10 µM
- Ki [38]: > 10 µM
- Ki [39]: > 10 µM
- Ki [40]: > 10 µM
- Ki [41]: > 10 µM
- Ki [42]: > 10 µM
- Ki [43]: > 10 µM
- Ki [44]: > 10 µM
Structure (SMILES): CNc1cc(-c2csc(N(C)C(=O)c3ccc(F)cc3)n2)ncn1
